Assay results as given in US20240076630A1, “METHODS FOR GENERATING NEURAL TISSUE AND USES THEREOF” (priority 2015, published 2024).

Test system: human brain organoids
Format: cell-based

Substance: 2,3-Dioxo-6-nitro-1,2,3,4-tetrahydrobenzo[f]quinoxaline-7-sulfonamide disodium salt [NBQX]
- mean spiking rate (NBQX 20 μM, n=9 units, p<0.05, two-tailed Wilcoxon signed rank test, FIG. 4D bottom panel legend): attenuated
- NBQX-treated median firing rate (bath application of 20 μM NBQX, 95% CI 0.0023 to 0.2048, n=12 units from 4 organoids): 0.0733 Hz
- reduction of the median mean firing rate (bath application of 20 μM NBQX, vs baseline median firing rate 0.3800 Hz, p=0.0005, n=12 units from 4 organoids): 81%

Substance: Tetrodotoxin citrate [TTX]
- spike rate: suppressed
